{
  "source": "patent US20090030024A1",
  "about": "“THIAZOLES AS FUNGICIDES” (priority 2005, published 2009)",
  "data": [
    {"test": "logP determination by retention times (calibration with alkan-2-ones)", "conditions": "* HPLC reversed-phase C18, 40° C., mobile phase 0.1% aqueous formic acid and acetonitrile, linear gradient 10% to 95% acetonitrile", "values": [
      {"compound": "CNc1nc(C)c(-c2ccnc(Nc3cccc(NC(C)=O)c3)n2)s1", "note": "[Example 684, N-[3-({4-[4-methyl-2-(methylamine)-1,3-thiazol-5-yl]pyrimidin-2-yl}amino)phenyl]acetamide]", "logP": "1.26*"},
      {"compound": "CC(=O)c1cccc(Nc2nccc(-c3sc(N(C)C)nc3C)n2)c1", "note": "[Example 685, 1-[3-({4-[2-(dimethylamine)-4-methyl-1,3-thiazol-5-yl]pyrimidin-2-yl}amino)phenyl]ethanone]", "logP": "1.89*"},
      {"compound": "Cc1nc(N(C)C)sc1-c1ccnc(Nc2cccc([N+](=O)[O-])c2)n1", "note": "[Example 686, 4-[2-(dimethylamine)-4-methyl-1,3-thiazol-5-yl]-N-(3-nitrophenyl)pyrimidine-2-amine]", "logP": "2.34*"}
    ]},
    {"test": "logP determination by retention times (calibration with alkan-2-ones)", "conditions": "logP, * HPLC reversed-phase C18, 40° C., mobile phase 0.1% aqueous formic acid and acetonitrile, linear gradient 10% to 95% acetonitrile", "values": [
      {"compound": "COc1cc(N(C(C)=O)c2nccc(-c3sc(C)nc3C)n2)cc(OC)c1OC", "note": "[Example 667, N-[4-(2,4-dimethyl-1,3-thiazol-5-yl)pyrimidin-2-yl]-N-(3,4,5-trimethoxyphenyl)acetamide]", "chromatographic logP": 1.9},
      {"compound": "CCc1nc(C)c(-c2ccnc(N(C(C)=O)c3ccccc3)n2)s1", "note": "[Example 668, N-[4-(2-ethyl-4-methyl-1,3-thiazol-5-yl)pyrimidin-2-yl]-N-phenylacetamide]", "chromatographic logP": 2.33},
      {"compound": "CCc1nc(C)c(-c2ccnc(N(C(C)=O)c3cc(OC)c(OC)c(OC)c3)n2)s1", "note": "[Example 669, N-[4-(2-ethyl-4-methyl-1,3-thiazol-5-yl)pyrimidin-2-yl]-N-(3,4,5-trimethoxyphenyl)acetamide]", "chromatographic logP": 2.19},
      {"compound": "CCc1nc(C)c(-c2ccnc(N(C(C)=O)c3cccc(C(C)=O)c3)n2)s1", "note": "[Example 671, N-(3-acetylphenyl)-N-[4-(2-ethyl-4-methyl-1,3-thiazol-5-yl)pyrimidin-2-yl]acetamide]", "chromatographic logP": 2.23},
      {"compound": "COC(=O)Nc1ccc(Nc2nccc(-c3sc(C4CC4)nc3C)n2)cc1", "note": "[Example 672, methyl-(4-{[4-(2-cyclopropyl-4-methyl-1,3-thiazol-5-yl)pyrimidin-2-yl]amino}phenyl)carbamate]", "chromatographic logP": 2.51},
      {"compound": "Cc1nc(C)c(-c2ccnc(Nc3ccc(N(C)C)c(Cl)c3)n2)s1", "note": "[Example 674, 2-chloro-N4-[4-(2,4-dimethyl-1,3-thiazol-5-yl)pyrimidin-2-yl]-N1,N1-dimethylbenzene-1,4-diamine]", "chromatographic logP": 2},
      {"compound": "COCCNc1nc(C)c(-c2ccnc(Nc3ccc(F)cc3)n2)s1", "note": "[Example 677, N-(4-fluorophenyl)-4-{2-[(2-methoxyethyl)amino]-4-methyl-1,3-thiazol-5-yl}pyrimidine-2-amine]", "chromatographic logP": 1.9},
      {"compound": "COCCNc1nc(C)c(-c2ccnc(Nc3ccccc3)n2)s1", "note": "[Example 678, 4-{2-[(2-methoxyethyl)amino]-4-methyl-1,3-thiazol-5-yl}-N-phenylpyrimidine-2-amine]", "chromatographic logP": 1.82},
      {"compound": "COCCNc1nc(C)c(-c2ccnc(Nc3cc(OC)c(OC)c(OC)c3)n2)s1", "note": "[Example 679, 4-{2-[(2-methoxyethyl)amino]-4-methyl-1,3-thiazol-5-yl}-N-(3,4,5-trimethoxyphenyl)pyrimidine-2-amine]", "chromatographic logP": 1.74},
      {"compound": "COCCNc1nc(C)c(-c2ccnc(Nc3cccc(Cl)c3)n2)s1", "note": "[Example 680, N-(3-chlorophenyl)-4-{2-[(2-methoxyethyl)amino]-4-methyl-1,3-thiazol-5-yl}pyrimidine-2-amine]", "chromatographic logP": 2.28},
      {"compound": "COCCNc1nc(C)c(-c2ccnc(Nc3cccc(OC)c3)n2)s1", "note": "[Example 681, 4-{2-[(2-methoxyethyl)amino]-4-methyl-1,3-thiazol-5-yl}-N-(3-methoxyphenyl)pyrimidine-2-amine]", "chromatographic logP": 1.86},
      {"compound": "COCCNc1nc(C)c(-c2ccnc(Nc3cccc(NC(C)=O)c3)n2)s1", "note": "[Example 682, N-{3-[(4-{2-[(2-methoxyethyl)amino]-4-methyl-1,3-thiazol-5-yl}pyrimidin-2-yl)amino]phenyl}acetamide]", "chromatographic logP": 1.36},
      {"compound": "COCCNc1nc(C)c(-c2ccnc(Nc3ccc(NC(C)=O)cc3)n2)s1", "note": "[Example 683, N-{4-[(4-{2-[(2-methoxyethyl)amino]-4-methyl-1,3-thiazol-5-yl}pyrimidin-2-yl)amino]phenyl}acetamide]", "chromatographic logP": 1.35}
    ]}
  ]
}
